Target: T1, Human TRPA1 (Homo sapiens, UniProt O75762)
T1 construct: expressed in transfected cells; host or cells: CHO cells
Experiment: 45Calcium uptake assay: inhibition of AITC induced cellular uptake of radioactive calcium
Assay type: cell-based
Details: AITC (30 μM) induced 45Ca uptake, Human TRPA1 expressing CHO cells; for inhibition at 1 µM: read-out: Percentage inhibition at 1.0 μM; for inhibition at 10 µM: read-out: Percentage inhibition at 10.0 μM; for IC50: read-out: Human IC50 value (range)
Summary of the method: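 CHO cells stably expressing human TRPA1 (~50,000/well) preincubated 10 min with compound (0.5% DMSO, medium with 0.1% BSA, 1.8 mM CaCl2), then 30 μM AITC plus 5 μCi/ml 45Ca2+ for 3 min. Lysate radioactivity counted by scintillation; IC50 by nonlinear regression of % maximal uptake.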

T1 sequence (O75762 whole entry): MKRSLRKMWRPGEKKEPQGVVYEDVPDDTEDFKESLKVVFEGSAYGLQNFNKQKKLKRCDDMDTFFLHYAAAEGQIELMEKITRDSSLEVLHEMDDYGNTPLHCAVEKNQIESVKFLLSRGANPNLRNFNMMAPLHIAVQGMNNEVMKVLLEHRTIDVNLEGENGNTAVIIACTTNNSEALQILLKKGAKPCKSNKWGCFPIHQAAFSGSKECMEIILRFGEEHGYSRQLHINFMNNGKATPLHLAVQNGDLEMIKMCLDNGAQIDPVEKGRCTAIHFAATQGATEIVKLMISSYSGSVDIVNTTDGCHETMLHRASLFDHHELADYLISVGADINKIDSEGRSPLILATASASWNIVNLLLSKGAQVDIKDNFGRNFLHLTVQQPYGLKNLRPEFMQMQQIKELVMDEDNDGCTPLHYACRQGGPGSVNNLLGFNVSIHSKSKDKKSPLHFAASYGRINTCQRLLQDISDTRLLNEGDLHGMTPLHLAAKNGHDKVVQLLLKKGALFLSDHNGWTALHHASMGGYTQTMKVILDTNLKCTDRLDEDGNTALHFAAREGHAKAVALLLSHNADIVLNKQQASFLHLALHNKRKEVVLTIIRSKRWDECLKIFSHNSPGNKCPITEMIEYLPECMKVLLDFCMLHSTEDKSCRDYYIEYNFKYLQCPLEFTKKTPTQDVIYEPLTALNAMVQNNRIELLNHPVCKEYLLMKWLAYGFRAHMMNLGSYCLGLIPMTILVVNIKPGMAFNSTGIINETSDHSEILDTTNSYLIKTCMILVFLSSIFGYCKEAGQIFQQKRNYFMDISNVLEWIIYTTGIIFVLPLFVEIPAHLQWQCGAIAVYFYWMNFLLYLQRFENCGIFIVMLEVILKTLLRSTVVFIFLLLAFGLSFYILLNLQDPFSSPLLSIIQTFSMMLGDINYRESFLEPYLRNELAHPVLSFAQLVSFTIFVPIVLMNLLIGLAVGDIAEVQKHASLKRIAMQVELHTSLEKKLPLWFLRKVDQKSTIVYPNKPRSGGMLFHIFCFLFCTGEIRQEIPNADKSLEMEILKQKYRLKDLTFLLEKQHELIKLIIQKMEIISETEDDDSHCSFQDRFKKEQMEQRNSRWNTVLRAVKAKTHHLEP

Compound	inhibition at 1 µM (1.0 μM test compound)	inhibition at 10 µM (10.0 μM test compound)	IC50	Percentage inhibition at 1.0 μM (1.0 μM test compound)	Percentage inhibition at 10.0 μM (10.0 μM test compound)
Cn1c(=O)c2c(cnn2CC(=O)Nc2nc(-c3cc(F)c(OCC4CCC4)c(F)c3)cs2)n(C)c1=O [Example 81, N-{4-[4-(Cyclobutylmethoxy)-3,5-difluorophenyl]-1,3-thiazol-2-yl}-2-(4,6-dimethyl-5,7-dioxo-4,5,6,7-tetrahydro-1H-pyrazolo[4,3-d]pyrimidin-1-yl)acetamide]	94%	100%	< 50 nM		
Cc1nn(CC(=O)Nc2nc(-c3cc(F)c(OCC(C)(C)C)c(F)c3)cs2)c2c(=O)n(C)c(=O)n(C)c12 [Example 82, N-[4-(3,5-Difluoro-4-(2,2-dimethylpropoxy)phenyl)-1,3-thiazol-2-yl]-2-(3,4,6-trimethyl-5,7-dioxo-4,5,6,7-tetrahydro-1H-pyrazolo[4,3-d]pyrimidin-1-yl)acetamide]	92.8%	99%	50 to 100 nM		
Cc1nn(CC(=O)Nc2nc(-c3cc(Cl)c(OCC(C)(C)C)c(Cl)c3)cs2)c2c(=O)n(C)c(=O)n(C)c12 [Example 83, N-[4-(3,5-Dichloro-4-(2,2-dimethylpropoxy)phenyl)-1,3-thiazol-2-yl]-2-(3,4,6-trimethyl-5,7-dioxo-4,5,6,7-tetrahydro-1H-pyrazolo[4,3-d]pyrimidin-1-yl)acetamide]	75.6%	95%	< 50 nM		
Cn1c(=O)c2c(cnn2CC(=O)Nc2cc(-c3ccc(Br)cc3)on2)n(C)c1=O [Example 84, N-[5-(4-Bromophenyl)isoxazol-3-yl]-2-(4,6-dimethyl-5,7-dioxo-4,5,6,7,-tetrahydro-1H-pyrazolo[4,3-d]pyrimidin-1-yl)acetamide]	17.2%	83.9%			
Cn1nc2c(c1CC(=O)Nc1nc(-c3ccc(C(F)(F)F)c(F)c3)c[nH]1)c(=O)n(C)c(=O)n2C [Example 85, N-{4-[3-Fluoro-4-(trifluoromethyl)phenyl]-1H-imidazol-2-yl]-2-(2,5,7-trimethyl-4,6-dioxo-4,5,6,7-tetrahydro-2H-pyrazolo[3,4-d]pyrimidin-3-yl)acetamide]	44.1%	78.2%			
N-{4-[3,5-Dichloro-4-isobutoxyphenyl]-1,3-thiazol-2-yl}-2-(4,6-dimethyl-5,7-dioxo-4,5,6,7-tetrahydro-1H-pyrazolo[4,3-d]pyrimidin-1-yl)acetamide [Example 77]			50 to 100 nM	89.48%	99.58%

Second part, led by results:

inhibition at 1 µM (1.0 μM test compound)	inhibition at 10 µM (10.0 μM test compound)	IC50	Compound	Percentage inhibition at 1.0 μM (1.0 μM test compound)	Percentage inhibition at 10.0 μM (10.0 μM test compound)
100%	99.7%	< 50 nM	Cn1c(=O)c2c(cnn2CC(=O)Nc2nc(-c3cc(F)c(OCC(C)(C)C)c(F)c3)cs2)n(C)c1=O [Example 78, N-{4-[4-(2,2-Dimethylpropoxy)-3,5-difluorophenyl]-1,3-thiazol-2-yl}-2-(4,6-dimethyl-5,7-dioxo-4,5,6,7-tetrahydro-1H-pyrazolo[4,3-d]pyrimidin-1-yl)acetamide]		
100%	100%	< 50 nM	Cn1c(=O)c2c(cnn2CC(=O)Nc2nc(-c3cc(Cl)c(OCC(C)(C)C)c(Cl)c3)cs2)n(C)c1=O [Example 79, N-{4-[3,5-Dichloro-4-(2,2-dimethylpropoxy)phenyl]-1,3-thiazol-2-yl}-2-(4,6-dimethyl-5,7-dioxo-4,5,6,7-tetrahydro-1H-pyrazolo[4,3-d]pyrimidin-1-yl)acetamide]		
100%	100%	< 50 nM	Cn1c(=O)c2c(cnn2CC(=O)Nc2nc(-c3cc(F)c(OCC(C)(C)C)c(Cl)c3)cs2)n(C)c1=O [Example 80, N-{4-[3-Chloro-4-(2,2-dimethylpropoxy)-5-fluorophenyl]-1,3-thiazol-2-yl}-2-(4,6-dimethyl-5,7-dioxo-4,5,6,7-tetrahydro-1H-pyrazolo[4,3-d]pyrimidin-1-yl)acetamide]		
